The NIST ThermoML archive (doi:10.1016/j.jct.2017.06.013)
± gives the expanded uncertainty stated by the source.

Assay: xn = mol fraction of the nth substance listed
Settings: Liquid, Vibrating tube method

CC(C)OC(C)C [diisopropyl ether] + CCCCCCO
mass density [kg/m3]
Settings | x1 = 0.1524 | x1 = 0.3196 | x1 = 0.4906 | x1 = 0.6974 | x1 = 0.8457
333.15 K, 140000 kPa | – | – | 831.4 ± 1.2 | 817.4 ± 1.2 | 807 ± 1.3
353.15 K, 100 kPa | 759.2 ± 0.7 | 741.7 ± 0.7 | 722.5 ± 0.7 | 698 ± 0.7 | 679.1 ± 0.7
353.15 K, 500 kPa | 759.5 ± 0.7 | 742.1 ± 0.7 | 723 ± 0.7 | 698.5 ± 0.7 | 679.8 ± 0.7
353.15 K, 1000 kPa | 760 ± 0.7 | 742.7 ± 0.7 | 723.6 ± 0.7 | 699.3 ± 0.7 | 680.7 ± 0.7
353.15 K, 2000 kPa | 761 ± 0.7 | 743.8 ± 0.7 | 724.9 ± 0.7 | 700.8 ± 0.7 | 682.5 ± 0.7
353.15 K, 5000 kPa | 764 ± 0.7 | 747.1 ± 0.7 | 728.8 ± 0.7 | 705.4 ± 0.7 | 687.6 ± 0.7
353.15 K, 10000 kPa | 768.7 ± 0.7 | 752.4 ± 0.7 | 734.8 ± 0.7 | 712.3 ± 0.8 | 695.5 ± 0.8
353.15 K, 15000 kPa | 773.1 ± 0.8 | 757.3 ± 0.8 | 740.2 ± 0.8 | 718.7 ± 0.8 | 702.5 ± 0.8
353.15 K, 20000 kPa | 777.3 ± 0.8 | 761.9 ± 0.8 | 745.3 ± 0.8 | 724.5 ± 0.8 | 708.9 ± 0.8
353.15 K, 30000 kPa | 785 ± 0.8 | 770.4 ± 0.8 | 754.6 ± 0.8 | 735 ± 0.8 | 720.4 ± 0.8
353.15 K, 40000 kPa | 792 ± 0.8 | 778 ± 0.8 | 762.9 ± 0.9 | 744.3 ± 0.9 | 730.4 ± 0.9
353.15 K, 50000 kPa | 798.5 ± 0.9 | 785 ± 0.9 | 770.5 ± 0.9 | 752.6 ± 0.9 | 739.4 ± 0.9
353.15 K, 60000 kPa | 804.6 ± 0.9 | 791.6 ± 0.9 | 777.6 ± 0.9 | 760.6 ± 1 | 747.7 ± 1
353.15 K, 70000 kPa | 810.3 ± 0.9 | 797.7 ± 0.9 | 784.2 ± 1 | 767.6 ± 1 | 755.2 ± 1
353.15 K, 80000 kPa | 815.7 ± 1 | 803.3 ± 1 | 790.1 ± 1 | 774.1 ± 1 | 762.1 ± 1.1
353.15 K, 90000 kPa | 820.8 ± 1 | 808.9 ± 1 | 796.1 ± 1.1 | 780.4 ± 1.1 | 768.7 ± 1.1
353.15 K, 100000 kPa | 825.7 ± 1 | 814 ± 1.1 | 801.5 ± 1.1 | 786.2 ± 1.1 | 774.8 ± 1.2
353.15 K, 110000 kPa | 830.4 ± 1.1 | 818.9 ± 1.1 | 806.7 ± 1.1 | 791.7 ± 1.2 | 780.5 ± 1.2
353.15 K, 120000 kPa | 834.9 ± 1.1 | 823.6 ± 1.1 | 811.6 ± 1.2 | 796.9 ± 1.2 | 786 ± 1.3
353.15 K, 130000 kPa | 839.1 ± 1.1 | 828 ± 1.2 | 816.3 ± 1.2 | 801.9 ± 1.3 | 791.1 ± 1.3
353.15 K, 140000 kPa | 843.2 ± 1.1 | 832.4 ± 1.2 | 820.8 ± 1.2 | 806.6 ± 1.3 | 796 ± 1.3
373.15 K, 100 kPa | 741.8 ± 5.4 | 723.3 ± 5.4 | 702.7 ± 5.4 | 676.5 ± 5.4 | 656.3 ± 5.4
373.15 K, 500 kPa | 742 ± 0.7 | 723.5 ± 0.7 | 703.1 ± 0.7 | 677 ± 0.7 | 657 ± 0.7
373.15 K, 1000 kPa | 742.6 ± 0.7 | 724.1 ± 0.7 | 703.9 ± 0.7 | 678 ± 0.7 | 658.1 ± 0.7
373.15 K, 2000 kPa | 743.8 ± 0.7 | 725.5 ± 0.7 | 705.4 ± 0.7 | 679.9 ± 0.7 | 660.3 ± 0.7
373.15 K, 5000 kPa | 747.1 ± 0.7 | 729.2 ± 0.7 | 709.9 ± 0.7 | 685.2 ± 0.7 | 666.5 ± 0.7
373.15 K, 10000 kPa | 752.4 ± 0.7 | 735.3 ± 0.7 | 716.7 ± 0.8 | 693.4 ± 0.8 | 675.7 ± 0.8
373.15 K, 15000 kPa | 757.3 ± 0.8 | 740.8 ± 0.8 | 723 ± 0.8 | 700.7 ± 0.8 | 683.8 ± 0.8
373.15 K, 20000 kPa | 761.9 ± 0.8 | 745.9 ± 0.8 | 728.8 ± 0.8 | 707.3 ± 0.8 | 691.2 ± 0.8
373.15 K, 30000 kPa | 770.5 ± 0.8 | 755.4 ± 0.8 | 739.1 ± 0.8 | 719.1 ± 0.8 | 704.1 ± 0.9
373.15 K, 40000 kPa | 778.2 ± 0.8 | 763.8 ± 0.9 | 748.4 ± 0.9 | 729.4 ± 0.9 | 715.3 ± 0.9
373.15 K, 50000 kPa | 785.2 ± 0.9 | 771.3 ± 0.9 | 756.6 ± 0.9 | 738.5 ± 0.9 | 725 ± 1
373.15 K, 60000 kPa | 791.8 ± 0.9 | 778.4 ± 0.9 | 764.2 ± 1 | 746.9 ± 1 | 733.9 ± 1
373.15 K, 70000 kPa | 797.9 ± 0.9 | 784.9 ± 1 | 771.3 ± 1 | 754.5 ± 1 | 742 ± 1.1
373.15 K, 80000 kPa | 803.8 ± 1 | 791.2 ± 1 | 778 ± 1 | 761.8 ± 1.1 | 749.5 ± 1.1
373.15 K, 90000 kPa | 809.2 ± 1 | 796.9 ± 1 | 784 ± 1.1 | 768.3 ± 1.1 | 756.4 ± 1.2
373.15 K, 100000 kPa | 814.3 ± 1.1 | 802.4 ± 1.1 | 789.8 ± 1.1 | 774.4 ± 1.2 | 762.8 ± 1.2
373.15 K, 110000 kPa | 819.4 ± 1.1 | 807.6 ± 1.1 | 795.3 ± 1.2 | 780.3 ± 1.2 | 769 ± 1.3
373.15 K, 120000 kPa | 824.2 ± 1.1 | 812.6 ± 1.2 | 800.6 ± 1.2 | 785.9 ± 1.3 | 774.7 ± 1.3
373.15 K, 130000 kPa | 828.6 ± 1.2 | 817.3 ± 1.2 | 805.5 ± 1.2 | 791.1 ± 1.3 | 780.2 ± 1.3
373.15 K, 140000 kPa | 833 ± 1.2 | 821.8 ± 1.2 | 810.2 ± 1.3 | 796.1 ± 1.3 | 785.3 ± 1.4
393.15 K, 500 kPa | 724.7 ± 0.7 | 705 ± 0.7 | 683.5 ± 0.7 | 655.7 ± 0.7 | 634.2 ± 0.7
393.15 K, 1000 kPa | 725.4 ± 0.7 | 705.7 ± 0.7 | 684.4 ± 0.7 | 656.8 ± 0.7 | 635.6 ± 0.7
393.15 K, 2000 kPa | 726.7 ± 0.7 | 707.3 ± 0.7 | 686.3 ± 0.7 | 659.1 ± 0.7 | 638.4 ± 0.7
393.15 K, 5000 kPa | 730.5 ± 0.7 | 711.7 ± 0.7 | 691.5 ± 0.7 | 665.6 ± 0.7 | 645.9 ± 0.8
393.15 K, 10000 kPa | 736.6 ± 0.7 | 718.7 ± 0.8 | 699.5 ± 0.8 | 675.3 ± 0.8 | 657 ± 0.8
393.15 K, 15000 kPa | 742.1 ± 0.8 | 724.9 ± 0.8 | 706.6 ± 0.8 | 683.6 ± 0.8 | 666.4 ± 0.8
393.15 K, 20000 kPa | 747.3 ± 0.8 | 730.7 ± 0.8 | 713.2 ± 0.8 | 691.2 ± 0.8 | 674.9 ± 0.8
393.15 K, 30000 kPa | 756.7 ± 0.8 | 741.1 ± 0.8 | 724.7 ± 0.8 | 704.4 ± 0.9 | 689.3 ± 0.9
393.15 K, 40000 kPa | 765.3 ± 0.9 | 750.4 ± 0.9 | 735 ± 0.9 | 715.8 ± 0.9 | 701.7 ± 0.9
393.15 K, 50000 kPa | 772.8 ± 0.9 | 758.6 ± 0.9 | 743.9 ± 0.9 | 725.7 ± 1 | 712.2 ± 1
393.15 K, 60000 kPa | 779.9 ± 0.9 | 766.4 ± 0.9 | 752.2 ± 1 | 734.8 ± 1 | 721.9 ± 1
393.15 K, 70000 kPa | 786.7 ± 1 | 773.5 ± 1 | 759.9 ± 1 | 743.1 ± 1.1 | 730.7 ± 1.1
393.15 K, 80000 kPa | 792.8 ± 1 | 779.9 ± 1 | 766.8 ± 1.1 | 750.5 ± 1.1 | 738.5 ± 1.1
393.15 K, 90000 kPa | 798.6 ± 1 | 786.1 ± 1.1 | 773.4 ± 1.1 | 757.6 ± 1.2 | 745.9 ± 1.2
393.15 K, 100000 kPa | 804.1 ± 1.1 | 791.8 ± 1.1 | 779.5 ± 1.2 | 764.1 ± 1.2 | 752.7 ± 1.2
393.15 K, 110000 kPa | 809.4 ± 1.1 | 797.5 ± 1.2 | 785.4 ± 1.2 | 770.3 ± 1.2 | 759.2 ± 1.3
393.15 K, 120000 kPa | 814.4 ± 1.2 | 802.7 ± 1.2 | 790.8 ± 1.2 | 776.1 ± 1.3 | 765.1 ± 1.3
393.15 K, 130000 kPa | 819.1 ± 1.2 | 807.6 ± 1.2 | 796 ± 1.3 | 781.5 ± 1.3 | 770.8 ± 1.4
393.15 K, 140000 kPa | 823.7 ± 1.2 | 812.4 ± 1.3 | 801 ± 1.3 | 786.8 ± 1.4 | 776.3 ± 1.4
